Reference: US7407982B2, “Oligo or polyalkylene glycol-coupled thrombin inhibitors” (HaemoSys GmbH, priority 2001, dated 2008)
Read-outs that look alike come from different tables or passages of the source.

How the values were obtained:
[1] = target: T1, trypsin (Bos taurus, UniProt P00760); assay: Ki values for trypsin, determined analogously; type: biochemical; details: Table 2, formula (III) compounds
T1 sequence (P00760 24-246): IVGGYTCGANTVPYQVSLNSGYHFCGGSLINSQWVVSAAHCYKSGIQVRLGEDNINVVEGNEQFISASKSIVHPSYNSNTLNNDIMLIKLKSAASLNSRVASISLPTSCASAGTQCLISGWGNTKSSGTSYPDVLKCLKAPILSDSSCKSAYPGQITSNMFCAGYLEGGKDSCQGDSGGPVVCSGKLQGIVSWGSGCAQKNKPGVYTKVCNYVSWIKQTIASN
Protocol: The Ki values for trypsin were determined analogously.
For optimizing the inhibitor conjugates, in particular of the following Examples 1 and 2, suitable groups R1 were sought which allow as strong a thrombin inhibition as possible. For examining the selectivity of the compounds, the inhibiting constants for trypsin were determined as well. The higher the quotient [KiTrypsin/KiThrombin], the more selectively the compound functions as a thrombin inhibitor. In order to facilitate the synthesis, this optimization was first carried out without coupling a polyalkylene glycol group to inhibitor molecules of formula (II) as listed in Table I. These compounds, which are active as thrombin inhibitors themselves, can be used as synthetic intermediates for the inhibitor conjugates of formula (I). As a central component, a glycyl-prolyl-dipeptide was consistently incorporated into the inhibitors.

[2] = target: T2, human α-thrombin (Homo sapiens, UniProt P00734); assay: Determination of Ki for thrombin inhibition (chromogenic or fluorogenic substrate, Dixon); type: biochemical; details: for KiTrypsin/KiThrombin: Example 8, selectivity quotient
T2 construct: 50 μl human α-thrombin (Kordia); purchased Kordia
Protocol: The Ki values are the average values of at least three calculations.
For determining the thrombin inhibiting effect of all reversibly binding inhibitors and inhibitor conjugates with inhibiting constants smaller than 1 nM, a fluorescence spectrometer (LS50B from the company Perkin Elmer) was used. […] The Ki values are the average values of at least three calculations.

[3] = Table 2, formula (III) compounds
[4] = Example 8, read-out: KiThrombin
[5] = Table I, formula (II) compounds

Row | Compound | Ki [2, 5] [nM] | Ki Trypsin/Ki Thrombin ([2]; Table I, selectivity quotient) | other results
1 | N=C(N)c1ccc(CNC(=O)[C@@H]2CCCN2C(=O)[C@H](CN)NS(=O)(=O)c2ccc3ccccc3c2)cc1 [compound 37] |  |  | Ki [1]: 10.3 nM; Ki [2, 3]: 2.4 nM; Ki Trypsin/Ki Thrombin ([2]; Table 2, selectivity quotient): 4.3
2 | N=C(N)N1CCC(CNC(=O)C2CCCN2C(=O)C(CC2CCCCC2)NCC(=O)O)CC1 [H-D-N(CH2—COOH)Cha-Pro-4-(amidomethyl)-N(amidino)piperidine, reference compound] |  |  | KiTrypsin/KiThrombin [2]: 173; Ki [2, 4]: 1.3 nM
3 | Cc1cccc(S(=O)(=O)NCC(=O)N2CCC[C@H]2C(=O)NCc2ccc(C(=N)N)cc2)c1 [4b] | 2.8 | 2.9 | 
4 | N=C(N)c1ccc(CNC(=O)[C@@H]2CCCN2C(=O)CNS(=O)(=O)/C=C/c2ccccc2)cc1 [compound 32] | 44.3 | 0.05 | 
5 | N=C(N)c1ccc(CNC(=O)[C@@H]2CCCN2C(=O)CNS(=O)(=O)c2ccc(Cl)cc2)cc1 [compound 13] | 10 | 2.7 | 
6 | N=C(N)c1ccc(CNC(=O)[C@@H]2CCCN2C(=O)CNS(=O)(=O)c2cc(Cl)c(Cl)cc2Cl)cc1 [compound 9] | 5.9 | 3.3 | 
7 | N=C(N)c1ccc(CNC(=O)C2CCCN2C(=O)C(CO)NS(=O)(=O)c2ccc3ccccc3c2)cc1 (stereo not shown) [compound 38] |  |  | Ki [2, 3]: 2.54 nM; Ki Trypsin/Ki Thrombin ([2]; Table 2, selectivity quotient): 10.9
8 | N=C(N)c1ccc(CNC(=O)C2CCCN2C(=O)C(CC(=O)O)NS(=O)(=O)c2ccc3ccccc3c2)cc1 (stereo not shown) [compound 42] |  |  | Ki [2, 3]: 24.1 nM; Ki Trypsin/Ki Thrombin ([2]; Table 2, selectivity quotient): 2.9
9 | N=C(N)c1ccc(CNC(=O)[C@@H]2CCCN2C(=O)CNS(=O)(=O)c2ccccc2Cl)cc1 [compound 27] | 19.3 | 0.98 | 
10 | N#Cc1cccc(S(=O)(=O)NCC(=O)N2CCC[C@H]2C(=O)NCc2ccc(C(=N)N)cc2)c1 [33a] | 48 | 0.47 | 
11 | Cc1cc(Cl)cc(Cl)c1S(=O)(=O)NCC(=O)N1CCC[C@H]1C(=O)NCc1ccc(C(=N)N)cc1 [compound 25] | 16.9 | 1.1 | 
12 | N=C(N)c1ccc(CNC(=O)[C@@H]2CCCN2C(=O)CNS(=O)(=O)c2ccccc2)cc1 [compound 15] | 10.8 | 0.96 | 
13 | N=C(N)c1ccc(CNC(=O)C2CCCN2C(=O)C(CCC(N)=O)NS(=O)(=O)c2ccc3ccccc3c2)cc1 (stereo not shown) [compound 40] |  |  | Ki [2, 3]: 3.8 nM; Ki Trypsin/Ki Thrombin ([2]; Table 2, selectivity quotient): 4.2
14 | 4-Methoxy-benezenesulfonyl-Asn(4-[MeO-PEG5000-CH2CH2CO—NHCH2]-benzyl-Pro-4-amidinobenzylamide |  |  | Ki [2, 4]: 0.19 nM
15 | N=C(N)c1ccc(CNC(=O)[C@@H]2CCCN2C(=O)CNS(=O)(=O)c2ccc([N+](=O)[O-])cc2)cc1 [compound 35] | 115 | 0.11 | 
16 | COc1ccc(S(=O)(=O)NC(CCCCN)C(=O)N2CCCC2C(=O)NCc2ccc(C(=N)N)cc2)cc1 (stereo not drawn) [No. 53, 4-Methoxy-benezenesulfonyl-Lys-Pro-4-amidinobenzylamide] |  |  | KiTrypsin/KiThrombin [2]: 112; Ki [2, 4]: 0.73 nM
17 | N#Cc1ccc(S(=O)(=O)NCC(=O)N2CCC[C@H]2C(=O)NCc2ccc(C(=N)N)cc2)cc1 [compound 34] | 76 | 0.33 | 
18 | Cc1cc(S(=O)(=O)NCC(=O)N2CCC[C@H]2C(=O)NCc2ccc(C(=N)N)cc2)c(Cl)cc1Cl [compound 14] | 10.5 | 1.1. | 
19 | Cc1ccc(S(=O)(=O)NCC(=O)N2CCC[C@H]2C(=O)NCc2ccc(C(=N)N)cc2)cc1 [compound 22] | 16.1 | 0.88 | 
20 | N=C(N)c1ccc(CNC(=O)C2CCCN2C(=O)C(CC(N)=O)NS(=O)(=O)c2ccc3ccccc3c2)cc1 (stereo not shown) [compound 39] |  |  | Ki [2, 3]: 3.4 nM; Ki Trypsin/Ki Thrombin ([2]; Table 2, selectivity quotient): 11
21 | COc1ccc(S(=O)(=O)NC(CC(=O)O)C(=O)N2CCCC2C(=O)NCc2ccc(C(=N)N)cc2)cc1 (stereo not drawn) [No. 55, 4-Methoxy-benezenesulfonyl-Asp-Pro-4-amidinobenzylamide] |  |  | KiTrypsin/KiThrombin [2]: 48; Ki [2, 4]: 1.6 nM

Row | Compound | Ki [2, 5] [nM] | Ki Trypsin/Ki Thrombin ([2]; Table I, selectivity quotient) | other results
22 | N=C(N)c1ccc(CNC(=O)[C@@H]2CCCN2C(=O)CNS(=O)(=O)c2cccc3ccccc23)cc1 [compound 10] | 7.8 | 0.5 | 
23 | N=C(N)c1ccc(CNC(=O)[C@@H]2CCCN2C(=O)CNS(=O)(=O)c2ccc(Cl)c(Cl)c2Cl)cc1 [compound 23] | 16.4 | 0.71 | 
24 | COc1ccc(S(=O)(=O)NCC(=O)N2CCC[C@H]2C(=O)NCc2ccc(C(=N)N)cc2)cc1C [1b] | 0.64 | 20 | 
25 | Cc1cc(C)c(S(=O)(=O)NCC(=O)N2CCC[C@H]2C(=O)NCc2ccc(C(=N)N)cc2)c(C)c1 [compound 24] | 16.6 | 0.80 | 
26 | N=C(N)c1ccc(CNC(=O)C2CCCN2C(=O)C(CC2CCCCC2)NCC(=O)O)cc1 [H-D-N(CH2—COOH)Cha-Pro-4-(amidino)benzylamide, reference compound] |  |  | KiTrypsin/KiThrombin [2]: 12; Ki [2, 4]: 0.3 nM
27 | COc1ccc(S(=O)(=O)NCC(=O)N2CCC[C@H]2C(=O)NCc2ccc(C(=N)N)cc2)cc1Cl [1a] | 0.44 | 45 | 
28 | N=C(N)c1ccc(CNC(=O)[C@@H]2CCCN2C(=O)CNS(=O)(=O)c2ccc3ccccc3c2)cc1 [compound 12] | 8.5 | 6.8 | Ki Trypsin/Ki Thrombin ([2]; Table 2, selectivity quotient): 6.8
29 | N=C(N)c1ccc(CNC(=O)[C@@H]2CCCN2C(=O)CNS(=O)(=O)c2cccc([N+](=O)[O-])c2)cc1 [compound 30] | 38 | 0.42 | 
30 | N=C(N)c1ccc(CNC(=O)[C@@H]2CCCN2C(=O)CNS(=O)(=O)c2cc(Cl)cc(Cl)c2)cc1 [compound 11] | 8.5 | 0.4 | 
31 | COc1ccc(S(=O)(=O)NC(CC(=O)NCc2cccc(C#N)c2)C(=O)N2CCCC2C(=O)NCc2ccc(C(=N)N)cc2)cc1 (stereo not shown) [compound 46] |  |  | Ki [2, 3]: 0.061 nM; Ki Trypsin/Ki Thrombin ([2]; Table 2, selectivity quotient): 1163
32 | CC(C)(C)c1ccc(S(=O)(=O)NCC(=O)N2CCC[C@H]2C(=O)NCc2ccc(C(=N)N)cc2)cc1 [compound 29] | 32.2 | 0.32 | 
33 | COc1ccc(S(=O)(=O)N[C@@H](CC(=O)O)C(=O)N2CCC[C@H]2C(=O)NCc2ccc(C(=N)N)cc2)cc1 [compound 55] |  |  | Ki [2, 3]: 1.6 nM; Ki Trypsin/Ki Thrombin ([2]; Table 2, selectivity quotient): 48
34 | CCc1ccc(S(=O)(=O)NCC(=O)N2CCC[C@H]2C(=O)NCc2ccc(C(=N)N)cc2)cc1 [compound 26] | 19.1 | 2.6 | 
35 | Cc1cc(C)c(C)c(S(=O)(=O)NCC(=O)N2CCC[C@H]2C(=O)NCc2ccc(C(=N)N)cc2)c1C [compound 18] | 13.4 | 2.5 | 
36 | N=C(N)c1ccc(CNC(=O)[C@@H]2CCCN2C(=O)CNS(=O)(=O)Cc2ccccc2)cc1 [compound 6] | 3.6 | 2.1 | 
37 | N=C(N)c1ccc(CNC(=O)[C@@H]2CCCN2C(=O)CNS(=O)(=O)c2ccc(Cl)c(Cl)c2)cc1 [4a] | 2.5 | 2.3 | 
38 | N=C(N)c1ccc(CNC(=O)[C@@H]2CCCN2C(=O)CNS(=O)(=O)c2ccc(Cl)cc2Cl)cc1 [compound 21] | 15.1 | 1.2 | 
39 | N=C(N)c1ccc(CNC(=O)[C@@H]2CCCN2C(=O)CNS(=O)(=O)c2cccc(Cl)c2Cl)cc1 [compound 17] | 12.7 | 0.87 | 
40 | Cc1c(C)c(C)c(S(=O)(=O)NCC(=O)N2CCC[C@H]2C(=O)NCc2ccc(C(=N)N)cc2)c(C)c1C [compound 16] | 12.7 | 2.2 | 
41 | COc1ccc(S(=O)(=O)NCC(=O)N2CCC[C@H]2C(=O)NCc2ccc(C(=N)N)cc2)cc1OC [compound 8] | 4.7 | 4.2 | 
42 | CCOc1ccc(S(=O)(=O)NCC(=O)N2CCC[C@H]2C(=O)NCc2ccc(C(=N)N)cc2)cc1 [33b] | 66 | 0.42 | 
